{
  "source": "ChEMBL document CHEMBL6096698",
  "about": "“Discovery of a Selective and Orally Bioavailable RET Degrader with Effectiveness in Various Mutations” (J Med Chem, 2025)",
  "key": {"[1]": {"assay": "PROTAC activity at CRBN/KIF5B-RET (unknown origin) expressed in mouse BaF3 cells assessed as induction of RET degradation incubated for 24 hrs by immunoblot analysis", "assay_type": "cell-based", "settings": "BaF3, 24 h"}, "BaF3 [2]": {"test_system": "BaF3", "assay": "Antiproliferative activity against mouse BaF3 cells stably expressing KIF5B-RET V804M mutant incubated for 72 hrs by CCK8 assay", "assay_type": "functional, cell-based", "settings": "BaF3, 72 h"}, "BaF3 [3]": {"test_system": "BaF3", "assay": "Antiproliferative activity against mouse BaF3 cells stably expressing KIF5B-RET G810C mutant incubated for 72 hrs by CCK8 assay", "assay_type": "functional, cell-based", "settings": "BaF3, 72 h"}, "BaF3 [4]": {"test_system": "BaF3", "assay": "Antiproliferative activity against mouse BaF3 cells stably expressing CCDC6-RET V804M mutant incubated for 72 hrs by CCK8 assay", "assay_type": "functional, cell-based", "settings": "BaF3, 72 h"}, "BaF3 [5]": {"test_system": "BaF3", "assay": "Antiproliferative activity against mouse BaF3 cells stably expressing CCDC6-RET G810C mutant incubated for 72 hrs by CCK8 assay", "assay_type": "functional, cell-based", "settings": "BaF3, 72 h"}, "BaF3 [6]": {"test_system": "BaF3", "assay": "Antiproliferative activity against mouse BaF3 cells stably expressing CCDC6-RET G810R mutant incubated for 72 hrs by CCK8 assay", "assay_type": "functional, cell-based", "settings": "BaF3, 72 h"}, "[7]": {"assay": "Cytotoxicity against human HEK293 cells", "assay_type": "toxicity, cell-based"}, "[8]": {"biological_target": "Proto-oncogene tyrosine-protein kinase receptor Ret (Homo sapiens, UniProt P07949)", "sequence (P07949 whole entry)": "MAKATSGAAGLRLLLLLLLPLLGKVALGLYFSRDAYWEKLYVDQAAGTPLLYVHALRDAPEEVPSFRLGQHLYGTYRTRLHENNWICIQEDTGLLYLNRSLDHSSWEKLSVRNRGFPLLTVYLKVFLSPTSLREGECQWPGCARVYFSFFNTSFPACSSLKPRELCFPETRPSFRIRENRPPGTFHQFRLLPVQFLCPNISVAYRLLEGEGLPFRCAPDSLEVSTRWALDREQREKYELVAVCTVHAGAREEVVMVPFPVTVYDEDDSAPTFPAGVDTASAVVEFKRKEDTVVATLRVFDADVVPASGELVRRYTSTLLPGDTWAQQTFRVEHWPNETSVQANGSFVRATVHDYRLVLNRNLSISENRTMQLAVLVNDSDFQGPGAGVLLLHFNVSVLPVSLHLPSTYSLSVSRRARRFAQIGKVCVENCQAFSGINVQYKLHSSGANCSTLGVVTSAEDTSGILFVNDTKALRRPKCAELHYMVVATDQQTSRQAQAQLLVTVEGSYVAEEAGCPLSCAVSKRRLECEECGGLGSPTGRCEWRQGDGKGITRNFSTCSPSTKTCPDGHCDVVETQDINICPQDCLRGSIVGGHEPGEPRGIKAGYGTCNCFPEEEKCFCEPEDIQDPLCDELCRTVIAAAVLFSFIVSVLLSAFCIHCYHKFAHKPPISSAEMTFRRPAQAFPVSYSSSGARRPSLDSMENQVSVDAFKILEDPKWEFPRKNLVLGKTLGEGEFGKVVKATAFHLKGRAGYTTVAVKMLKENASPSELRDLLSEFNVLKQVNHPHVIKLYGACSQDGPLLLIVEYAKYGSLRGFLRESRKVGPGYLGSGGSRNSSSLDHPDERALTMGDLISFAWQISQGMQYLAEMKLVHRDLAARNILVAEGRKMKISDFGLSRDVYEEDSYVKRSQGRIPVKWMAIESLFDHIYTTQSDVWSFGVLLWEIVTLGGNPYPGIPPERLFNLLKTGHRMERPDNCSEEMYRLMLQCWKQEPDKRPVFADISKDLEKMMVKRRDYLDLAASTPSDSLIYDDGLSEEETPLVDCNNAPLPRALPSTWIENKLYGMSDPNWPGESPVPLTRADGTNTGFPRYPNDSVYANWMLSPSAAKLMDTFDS", "assay": "Inhibition of RET (unknown origin) preincubated for 10 mins followed by substrate/ATP addition measured after 30 mins by HTRF assay"}, "[9]": {"assay": "PROTAC activity at CRBN/KIF5B-RET G810C mutant (unknown origin) expressed in mouse BaF3 cells assessed as induction of RET G810C mutant degradation incubated for 24 hrs by immunoblot analysis", "assay_type": "cell-based", "settings": "BaF3, 24 h"}, "BaF3 [10]": {"test_system": "BaF3", "assay": "PROTAC activity at CRBN/KIF5B-RET G810C mutant (unknown origin) expressed in mouse BaF3 cells assessed as induction of RET G810C mutant degradation at 1 to 100 nM incubated for 24 hrs by immunoblot analysis relative to control", "assay_type": "cell-based", "settings": "dose 1-100 nM"}, "BaF3 [11]": {"test_system": "BaF3", "assay": "PROTAC activity at CRBN/KIF5B-RET (unknown origin) expressed in mouse BaF3 cells assessed as induction of RET degradation at 10 nM incubated for 24 hrs in presence of MG132 by immunoblot analysis", "assay_type": "cell-based"}, "BaF3 [12]": {"test_system": "BaF3", "assay": "PROTAC activity at CRBN/KIF5B-RET (unknown origin) expressed in mouse BaF3 cells assessed as induction of RET degradation at 10 nM incubated for 24 hrs in presence of MLN4924 by immunoblot analysis", "assay_type": "cell-based"}, "BaF3 [13]": {"test_system": "BaF3", "assay": "PROTAC activity at CRBN/KIF5B-RET G810C mutant (unknown origin) expressed in mouse BaF3 cells assessed as decrease in Shc activation incubated for 24 hrs by immunoblot analysis", "assay_type": "cell-based", "settings": "dose 1-50 nM"}, "[14]": {"assay": "Induction of apoptosis in mouse BaF3 cells stably expressing KIF5B-RET G810C mutant assessed as viable cells at 10 nM incubated for 48 hrs by Annexin V-FITC/PI staining based flow cytometry (reference value: 92.21 %)", "assay_type": "functional", "settings": "read-out: Activity"}, "[15]": {"assay": "Induction of apoptosis in mouse BaF3 cells stably expressing KIF5B-RET G810C mutant assessed as early apoptotic cells at 10 nM incubated for 48 hrs by Annexin V-FITC/PI staining based flow cytometry (reference value: 0.86 %)", "assay_type": "functional"}, "[16]": {"assay": "Induction of apoptosis in mouse BaF3 cells stably expressing KIF5B-RET G810C mutant assessed as late apoptotic cells at 10 nM incubated for 48 hrs by Annexin V-FITC/PI staining based flow cytometry (reference value: 5.99 %)", "assay_type": "functional"}, "[17]": {"assay": "Induction of apoptosis in mouse BaF3 cells stably expressing KIF5B-RET G810C mutant assessed as viable cells at 20 nM incubated for 48 hrs by Annexin V-FITC/PI staining based flow cytometry (reference value: 92.21 %)", "assay_type": "functional", "settings": "read-out: Activity"}, "[18]": {"assay": "Induction of apoptosis in mouse BaF3 cells stably expressing KIF5B-RET G810C mutant assessed as early apoptotic cells at 20 nM incubated for 48 hrs by Annexin V-FITC/PI staining based flow cytometry (reference value: 0.86 %)", "assay_type": "functional"}, "[19]": {"assay": "Induction of apoptosis in mouse BaF3 cells stably expressing KIF5B-RET G810C mutant assessed as late apoptotic cells at 20 nM incubated for 48 hrs by Annexin V-FITC/PI staining based flow cytometry (reference value: 5.99 %)", "assay_type": "functional"}, "[20]": {"assay": "Induction of apoptosis in mouse BaF3 cells stably expressing KIF5B-RET G810C mutant assessed as early apoptotic cells at 40 nM incubated for 48 hrs by Annexin V-FITC/PI staining based flow cytometry (reference value: 0.86 %)", "assay_type": "functional"}, "[21]": {"assay": "Induction of apoptosis in mouse BaF3 cells stably expressing KIF5B-RET G810C mutant assessed as apoptotic cells at 10 nM incubated for 48 hrs by Annexin V-FITC/PI staining based flow cytometry (reference value: 6.7 %)", "assay_type": "functional"}, "[22]": {"assay": "Induction of apoptosis in mouse BaF3 cells stably expressing KIF5B-RET G810C mutant assessed as apoptotic cells at 20 nM incubated for 48 hrs by Annexin V-FITC/PI staining based flow cytometry (reference value: 6.7 %)", "assay_type": "functional"}, "[23]": {"assay": "Induction of apoptosis in mouse BaF3 cells stably expressing KIF5B-RET G810C mutant assessed as apoptotic cells at 40 nM incubated for 48 hrs by Annexin V-FITC/PI staining based flow cytometry (reference value: 6.7 %)", "assay_type": "functional"}, "[24]": {"assay": "Half life in Sprague-Dawley rat at 1 mg/kg, iv measured for 24 hrs by LC-MS/MS analysis", "assay_type": "ADME, organism-based", "settings": "in vivo"}, "[25]": {"assay": "AUC (0 to infinity) in Sprague-Dawley rat at 1 mg/kg, iv measured for 24 hrs by LC-MS/MS analysis", "assay_type": "ADME, organism-based", "settings": "in vivo"}, "[26]": {"assay": "Volume of distribution at steady state in Sprague-Dawley rat at 1 mg/kg, iv measured for 24 hrs by LC-MS/MS analysis", "assay_type": "ADME, organism-based", "settings": "in vivo, read-out: Vdss"}, "[27]": {"assay": "Clearance in Sprague-Dawley rat at 1 mg/kg, iv measured for 24 hrs by LC-MS/MS analysis", "assay_type": "ADME, organism-based", "settings": "in vivo"}, "[28]": {"assay": "Half life in Sprague-Dawley rat at 10 mg/kg, po measured for 24 hrs by LC-MS/MS analysis", "assay_type": "ADME, organism-based", "settings": "in vivo"}, "[29]": {"assay": "Tmax in Sprague-Dawley rat at 10 mg/kg, po measured for 24 hrs by LC-MS/MS analysis", "assay_type": "ADME, organism-based", "settings": "in vivo"}, "[30]": {"assay": "Cmax in Sprague-Dawley rat at 10 mg/kg, po measured for 24 hrs by LC-MS/MS analysis", "assay_type": "ADME, organism-based", "settings": "in vivo"}, "[31]": {"assay": "Oral bioavailability in Sprague-Dawley rat at 10 mg/kg measured for 24 hrs by LC-MS/MS analysis", "assay_type": "ADME, organism-based", "settings": "in vivo"}, "BaF3 [32]": {"test_system": "BaF3", "assay": "Antitumor activity against mouse BaF3 cells stably expressing KIF5B-RET G810C mutant implanted in BALB/c nu/nu mouse at 10 mg/kg, po bid treated for 10 days relative to control", "assay_type": "functional", "settings": "BaF3, 240 h, time 10 day, read-out: TGI"}, "[33]": {"assay": "Toxicity in BALB/c nu/nu mouse implanted with mouse BaF3 cells stably expressing KIF5B-RET G810C mutant assessed as body weight loss at 10 mg/kg, po bid treated for 10 days", "assay_type": "organism-based", "settings": "in vivo, 240 h, time 10 day"}},
  "note": "Activity calls are given as the source filed them. No cut-off for these calls is given here.",
  "data": [
    {"smiles": "COc1ccc(CN2C3CC2CN(c2ccc(-c4cc(N5CCC(N6CCN(CCCC#Cc7cccc8c7CN(C7CCC(=O)NC7=O)C8=O)CC6)CC5)cn5ncc(C#N)c45)cn2)C3)cn1", "note": "(stereo not drawn)", "values": [
      {"measurement": "DC50", "setting": "[1]", "result": 5.6, "unit": "nM"},
      {"measurement": "IC50", "setting": "BaF3 [2]", "result": 5.2, "unit": "nM"},
      {"measurement": "IC50", "setting": "BaF3 [3]", "result": 5.3, "unit": "nM"},
      {"measurement": "IC50", "setting": "BaF3 [4]", "result": 4.5, "unit": "nM"},
      {"measurement": "IC50", "setting": "BaF3 [5]", "result": 6.5, "unit": "nM"},
      {"measurement": "IC50", "setting": "BaF3 [6]", "result": 122, "unit": "nM"},
      {"measurement": "IC50", "setting": "[7]", "result": "> 5000", "unit": "nM"},
      {"measurement": "IC50", "setting": "[8]", "result": 0.371, "unit": "nM"},
      {"measurement": "DC50", "setting": "[9]", "result": 11.7, "unit": "nM"},
      {"measurement": "Emax", "setting": "BaF3 [10]", "result": 91, "unit": "%"},
      {"measurement": "Activity", "setting": "BaF3 [11]", "result": "inactive"},
      {"measurement": "Activity", "setting": "BaF3 [12]", "result": "inactive"},
      {"measurement": "Activity", "setting": "BaF3 [13]", "result": "Dose-dependent-effect"},
      {"measurement": "viability at 0.01 µM", "setting": "[14]", "result": 64.3, "unit": "%"},
      {"measurement": "Activity", "setting": "[15]", "result": 18.33, "unit": "%"},
      {"measurement": "Activity", "setting": "[16]", "result": 15.87, "unit": "%"},
      {"measurement": "viability at 0.02 µM", "setting": "[17]", "result": 43.4, "unit": "%"},
      {"measurement": "Activity", "setting": "[18]", "result": 38.21, "unit": "%"},
      {"measurement": "Activity", "setting": "[19]", "result": 17.41, "unit": "%"},
      {"measurement": "Activity", "setting": "[20]", "result": 56.22, "unit": "%"},
      {"measurement": "Activity", "setting": "[21]", "result": 34.1, "unit": "%"},
      {"measurement": "Activity", "setting": "[22]", "result": 55.4, "unit": "%"},
      {"measurement": "Activity", "setting": "[23]", "result": 71.3, "unit": "%"},
      {"measurement": "half-life", "setting": "[24]", "result": 6.98, "unit": "h"},
      {"measurement": "AUC(0-inf)", "setting": "[25]", "result": 0.295, "unit": "µg·h/mL"},
      {"measurement": "Vd", "setting": "[26]", "result": 31.9, "unit": "L/kg"},
      {"measurement": "clearance", "setting": "[27]", "result": 3.17, "unit": "L/h/kg"},
      {"measurement": "half-life", "setting": "[28]", "result": 8.21, "unit": "h"},
      {"measurement": "Tmax", "setting": "[29]", "result": 2, "unit": "h"},
      {"measurement": "Cmax", "setting": "[30]", "result": 0.161, "unit": "µg/mL"},
      {"measurement": "bioavailability", "setting": "[31]", "result": 40.3, "unit": "%"},
      {"measurement": "inhibition in vivo at 10 mg/kg", "setting": "BaF3 [32]", "result": 85.1, "unit": "%"},
      {"measurement": "Activity", "setting": "[33]", "result": "Non-toxic"}
    ]}
  ]
}
